Results as given in ChEMBL document CHEMBL1201862, “PubChem BioAssay data set” (2004).
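Five compound concentrations were applied to cells in 96-well plates for 48 hours; endpoints were derived by simple linear interpolation of the resulting dose-response curve. Abbreviation: GI50, concentration required for 50% inhibition of growth.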 Calls of active or inactive are those of the source. Cut-off read from the data, not from the text of the source: active = GI50 up to about 1.1 µM and inactive = higher. Where a SMILES comes first, the peptide text is derived from it. [ ]: non-standard residue; d: D form. ξ: configuration not given here. ξThz(5,5-Me2) = CC1(C)SCNC1C(=O)O

Tests used:
Assay in all cases: growth of human tumour cells (NCI), 48 h
786-0 = test system: 786-0
A549 = test system: A549
EKVX = test system: EKVX
HCT-116 = test system: HCT-116
HT-29 = test system: HT-29
K562 = test system: K562
MCF7 = test system: MCF7
MDA-MB-231 = test system: MDA-MB-231
MOLT-4 = test system: MOLT-4
NCI-H226 = test system: NCI-H226
NCI-H460 = test system: NCI-H460
NCI-H522 = test system: NCI-H522
OVCAR-4 = test system: OVCAR-4
PC-3 = test system: PC-3
SK-MEL-2 = test system: SK-MEL-2
T47D = test system: T47D
UACC-257 = test system: UACC-257
UACC-62 = test system: UACC-62
KM12 = test system: KM12

Measured: GI50

CCOP(=O)(Nc1ccc2oc(=O)c3ccccc3c2c1)OCC
inactive: 786-0 76.7 µM | A549 41.9 µM | EKVX 46 µM | HCT-116 66.2 µM | HT-29 63.2 µM | K562 38.1 µM | MCF7 14.2 µM | MDA-MB-231 38.4 µM | MOLT-4 54.8 µM | NCI-H226 41 µM | NCI-H460 > 100 µM | NCI-H522 68.9 µM | OVCAR-4 60.1 µM | PC-3 27.8 µM | SK-MEL-2 62.5 µM | T47D 35.3 µM | UACC-257 > 100 µM | UACC-62 48.1 µM

CSCC[C@H](NC(=O)[C@H](CC(C)C)NC(=O)[C@H](Cc1c[nH]cn1)NC(=O)CNC(=O)C1N(C(=O)[C@@H](C)NC(=O)[C@H](Cc2c[nH]c3ccccc23)NC(=O)[C@H](CCC(N)=O)NC(=O)[C@@H](N)CC(N)=O)CSC1(C)C)C(N)=O (stereo not given in full) (H-NQW[dA][ξThz(5,5-Me2)]GHLM-NH2)
inactive: 786-0 > 25 µM | A549 > 25 µM | EKVX > 25 µM | HCT-116 > 25 µM | HT-29 > 25 µM | K562 > 25 µM | KM12 > 25 µM | MCF7 > 25 µM | MDA-MB-231 > 25 µM | MOLT-4 > 25 µM | NCI-H226 > 25 µM | NCI-H460 > 25 µM | NCI-H522 > 25 µM | OVCAR-4 > 25 µM | PC-3 > 25 µM | T47D > 25 µM | UACC-257 > 25 µM | UACC-62 > 25 µM

O=c1[nH]c2nc3ccccc3c(=O)n2/c1=C/c1ccco1
inactive: 786-0 > 100 µM | A549 > 100 µM | EKVX > 100 µM | HCT-116 > 100 µM | HT-29 > 100 µM | K562 > 100 µM | KM12 > 100 µM | MCF7 4.2 µM | MDA-MB-231 > 100 µM | MOLT-4 > 100 µM | NCI-H226 > 100 µM | NCI-H522 > 100 µM | OVCAR-4 > 100 µM | PC-3 > 100 µM | SK-MEL-2 > 100 µM | T47D 23.4 µM | UACC-257 > 100 µM | UACC-62 > 100 µM

CC1N(C)C(=O)OC12CCN(CCCC(=O)c1ccc(F)cc1)CC2 (stereo not given)
inactive: 786-0 > 100 µM | A549 > 100 µM | HCT-116 > 100 µM | HT-29 > 100 µM | K562 > 100 µM | KM12 > 100 µM | MCF7 > 100 µM | MDA-MB-231 > 100 µM | MOLT-4 > 100 µM | NCI-H226 > 100 µM | NCI-H460 > 100 µM | NCI-H522 > 100 µM | PC-3 > 100 µM | SK-MEL-2 > 100 µM | T47D > 100 µM | UACC-257 > 100 µM | UACC-62 > 100 µM

Cc1nc2c(n1CCCl)C(=O)c1ccccc1C2=O
inactive: 786-0 52.2 µM | A549 33.7 µM | EKVX 53.8 µM | HCT-116 16.1 µM | HT-29 15.8 µM | K562 16 µM | KM12 25.3 µM | MCF7 18.9 µM | MDA-MB-231 15.4 µM | MOLT-4 12.9 µM | NCI-H226 18.7 µM | NCI-H460 14.9 µM | NCI-H522 16.7 µM | OVCAR-4 14.8 µM | PC-3 8.43 µM | T47D > 10 µM | UACC-257 14.1 µM | UACC-62 13 µM

CNC(=O)C(C)NC(=O)C(Cc1ccccc1)NC(=O)OC(C)(C)C (stereo not given)
inactive: 786-0 > 100 µM | A549 > 100 µM | EKVX > 100 µM | HCT-116 > 100 µM | HT-29 > 100 µM | K562 > 100 µM | KM12 > 100 µM | MCF7 > 100 µM | MDA-MB-231 > 100 µM | MOLT-4 > 100 µM | NCI-H226 > 100 µM | NCI-H460 > 100 µM | NCI-H522 51.2 µM | PC-3 > 100 µM | SK-MEL-2 > 100 µM | T47D > 100 µM | UACC-257 > 100 µM | UACC-62 > 100 µM

COc1ccc(C(Nc2ccccn2)c2cc(C(C)(C)C)cc(C(C)(C)C)c2O)cc1 (stereo not given)
inactive: 786-0 21.4 µM | A549 30 µM | EKVX 36 µM | HCT-116 12.6 µM | HT-29 22 µM | K562 55 µM | KM12 14.9 µM | MCF7 16.2 µM | MDA-MB-231 33.4 µM | NCI-H226 21.3 µM | NCI-H460 16.7 µM | NCI-H522 4.05 µM | OVCAR-4 34.4 µM | PC-3 21.8 µM | SK-MEL-2 18.1 µM | T47D 6.67 µM | UACC-257 26.2 µM | UACC-62 17 µM
